According to patent US9273057B2 (Bristol-Myers Squibb Company, priority 2012, dated 2016):
Where a name gives a salt, the structure may show the parent alone.

What follows are molecules tested against CK2A1 (CK2α/β) (Homo sapiens, UniProt P68400) (assay: CK2 kinase assay, CK2A1 (CK2α/β)). Settings: Table A; read-out: CK2A1 (CK2α/β) (IC50).
Assay type: biochemical

Chain of CK2A1 (CK2α/β) (P68400 whole entry, species assumed): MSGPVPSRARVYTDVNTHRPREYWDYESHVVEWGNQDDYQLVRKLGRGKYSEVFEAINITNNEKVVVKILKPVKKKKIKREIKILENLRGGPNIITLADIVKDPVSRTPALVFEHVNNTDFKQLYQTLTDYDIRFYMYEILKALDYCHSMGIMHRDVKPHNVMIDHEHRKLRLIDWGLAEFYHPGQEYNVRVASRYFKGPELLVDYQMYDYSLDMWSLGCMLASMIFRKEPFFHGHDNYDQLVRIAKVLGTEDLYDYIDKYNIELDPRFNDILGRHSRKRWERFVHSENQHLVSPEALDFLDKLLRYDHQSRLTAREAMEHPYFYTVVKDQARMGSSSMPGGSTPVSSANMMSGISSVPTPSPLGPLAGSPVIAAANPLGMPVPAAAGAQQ
Chain of CK2A1 (CK2α/β) (P67870 whole entry partner, species assumed): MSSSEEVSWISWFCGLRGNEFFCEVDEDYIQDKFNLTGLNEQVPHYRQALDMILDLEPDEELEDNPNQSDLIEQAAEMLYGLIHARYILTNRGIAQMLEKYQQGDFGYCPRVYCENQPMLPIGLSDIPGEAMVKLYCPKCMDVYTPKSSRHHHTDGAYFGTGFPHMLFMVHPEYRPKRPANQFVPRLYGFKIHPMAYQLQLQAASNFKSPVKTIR

Row | Compound | IC50
1 | C[C@@H](N)C(=O)N1CCC(c2cc(C#N)cc(Nc3nc(NC4CC4)c4ncc(C#N)n4n3)c2Cl)CC1 [Example 241, 2-((3-(1-D-alanyl-4-piperidinyl)-2-chloro-5-cyanophenyl)amino)-4-(cyclopropylamino)imidazo[2,1-f][1,2,4]triazine-7-carbonitrile] | 0.59 nM
2 | CN(C)C(=O)C1CN(c2cc(C#N)cc(Nc3nc(NC4CC4)c4ncc(C#N)n4n3)c2Cl)CCN1CC(O)CF (single isomer, unassigned) [Example 316, (+/−) 4-(2-chloro-5-cyano-3-((7-cyano-4-(cyclopropylamino)imidazo [2,1-f][1,2,4]triazin-2-yl)amino)phenyl)-1-(3-fluoro-2-hydroxypropyl)-N,N-dimethyl-2-piperazinecarboxamide] | 1.87 nM
3 | CCNc1nc(Nc2cc(C#N)cc(N3CC[C@@H](NC(=O)OC)[C@@H](NC4COC4)C3)c2Cl)nn2c(C#N)cnc12 [Example 747, methyl ((3S,4R)-1-(2-chloro-5-cyano-3-((7-cyano-4-(ethylamino)imidazo[2,1-f][1,2,4]triazin-2-yl)amino)phenyl)-3-(oxetan-3-ylamino)piperidin-4-yl)carbamate] | 1.62 nM
4 | N#Cc1cc(Nc2nc(NC3CC3)c3ncc(C#N)n3n2)c(F)cc1OCCN1CCOCC1 [Example 416, 2-((5-cyano-2-fluoro-4-(2-morpholinoethoxy)phenyl)amino)-4-(cyclopropylamino)imidazo[2,1-f][1,2,4]triazine-7-carbonitrile] | 0.68 nM
5 | COCCN(C)CC1CN(c2cc(C#N)cc(Nc3nc(NC4CC4)c4ncc(C#N)n4n3)c2Cl)CCN1C (stereo not drawn) [Example 707, 2-{[2-chloro-5-cyano-3-(3-{[(2-methoxyethyl)(methyl)amino]methyl}-4-methylpiperazin-1-yl)phenyl]amino}-4-(cyclopropylamino)imidazo[2,1-f][1,2,4]triazine-7-carbonitrile] | 1.35 nM
6 | N#Cc1cc(Nc2nc(NC3CC3)c3ncc(C#N)n3n2)c(Cl)c(C(O)CN2CCC(O)CC2)c1 (stereo not drawn) [Example 688, 2-((2-chloro-5-cyano-3-(1-hydroxy-2-(4-hydroxypiperidin-1-yl)ethyl)phenyl)amino)-4-(cyclopropylamino)imidazo[2,1-f][1,2,4]triazine-7-carbonitrile] | 2.4 nM
7 | COC(=O)N1CCN(Cc2cc(C#N)cc(Nc3nc(NC4CC4)c4ncc(C#N)n4n3)c2Cl)CC1 [Example 478, methyl 4-[(2-chloro-5-cyano-3-{[7-cyano-4-(cyclopropylamino)imidazo[2,1-f][1,2,4]triazin-2-yl]amino}phenyl)methyl]piperazine-1-carboxylate] | 1.31 nM
8 | CC(C(N)=O)N1CC2(CCN(c3cc(C#N)cc(Nc4nc(NC5CC5)c5ncc(C#N)n5n4)c3Cl)CC2)C1 (racemic) [Example 802, (+/−)-2-(7-(2-chloro-5-cyano-3-((7-cyano-4-(cyclopropylamino)imidazo[2,1-f][1,2,4]triazin-2-yl)amino)phenyl)-2,7-diazaspiro[3.5]nonan-2-yl)propanamide] | 6.9 nM
9 | N#Cc1cc(Nc2nc(NC3CC3)c3ncc(C#N)n3n2)c(Cl)c(N2CCC(NC3CCOC3)CC2)c1 (racemic) [Example 112, (+/−) 2-((2-chloro-5-cyano-3-(4-(tetrahydro-3-furanylamino)-1-piperidinyl)phenyl)amino)-4-(cyclopropylamino)imidazo [2,1-f][1,2,4]triazine-7-carbonitrile] | 2.56 nM
10 | CCNC(=O)OCC1CN(c2cc(C#N)cc(Nc3nc(NC4CC4)c4ncc(C#N)n4n3)c2Cl)CCO1 (racemic) [Example 699, (+/−)-(4-(2-chloro-5-cyano-3-((7-cyano-4-(cyclopropylamino)imidazo[2,1-f][1,2,4]triazin-2-yl)amino)phenyl)morpholin-2-yl)methyl ethylcarbamate] | 0.97 nM
11 | CC(C)(O)C1CN(c2cc(C(F)F)cc(Nc3nc(NC4CC4)c4ncc(C#N)n4n3)c2Cl)CCO1 (racemic) [Example 280, (+/−) 2-((2-chloro-5-(difluoromethyl)-3-(2-(1-hydroxy-1-methylethyl)-4-morpholinyl)phenyl)amino)-4-(cyclopropylamino)imidazo[2,1-f][1,2,4]triazine-7-carbonitrile] | 2.09 nM
12 | N#Cc1cnc2c(NC3CC3)nc(Nc3cc(C(F)F)cc(N4CCC(O)CC4)c3Cl)nn12 [Example 255, 2-((2-chloro-5-(difluoromethyl)-3-(4-hydroxy-1-piperidinyl)phenyl)amino)-4-(cyclopropylamino)imidazo[2,1-f][1,2,4]triazine-7-carbonitrile] | 0.53 nM
13 | N#Cc1cc(Nc2nc(NC3CC3)c3ncc(C#N)n3n2)c(F)cc1OC[C@@H]1COCCN1 [Example 417, (S)-2-((5-cyano-2-fluoro-4-(morpholin-3-ylmethoxy)phenyl)amino)-4-(cyclopropylamino)imidazo[2,1-f][1,2,4]triazine-7-carbonitrile] | 0.31 nM
14 | C[C@@H]1CN(c2cc(C#N)cc(Nc3nc(NC4CC4)c4ncc(C#N)n4n3)c2Cl)C[C@@H]1O (racemic) [Example 19, (+/−) 2-((2-chloro-5-cyano-3-((3R,4R)-3-hydroxy-4-methyl-1-pyrrolidinyl)phenyl)amino)-4-(cyclopropylamino)imidazo [2,1-f][1,2,4]triazine-7-carbonitrile] | 1.27 nM
15 | CCNc1nc(Nc2cc(C#N)cc(C3CCN(C4COC4)CC3)c2Cl)nn2c(C#N)cnc12 [Example 349, 2-((2-chloro-5-cyano-3-(1-(oxetan-3-yl)piperidin-4-yl)phenyl)amino)-4-(ethylamino)imidazo[2,1-f][1,2,4]triazine-7-carbonitrile] | 2.75 nM
16 | CN1CCC(F)(c2cc(C#N)cc(Nc3nc(NC4CC4)c4ncc(C#N)n4n3)c2Cl)CC1 [Example 661, 2-((2-chloro-5-cyano-3-(4-fluoro-1-methylpiperidin-4-yl)phenyl)amino)-4-(cyclopropylamino)imidazo[2,1-f][1,2,4]triazine-7-carbonitrile] | 1.56 nM
17 | N#Cc1cc(Nc2nc(NC3CC3)c3ncc(C#N)n3n2)c(Cl)cc1NC1CCN(C2COC2)CC1 [Example 411, 2-((2-chloro-5-cyano-4-((1-(oxetan-3-yl)piperidin-4-yl)amino)phenyl)amino)-4-(cyclopropylamino)imidazo[2,1-f][1,2,4]triazine-7-carbonitrile] | 0.76 nM
18 | N#Cc1cc(Nc2nc(NC3CC3)c3ncc(C#N)n3n2)c(Cl)c(N2CC[C@@H](NC(=O)OC3CN(C4COC4)C3)[C@H](O)C2)c1 (racemic) [Example 180, (+/−)-1-(oxetan-3-yl)azetidin-3-yl((3R,4R)-1-(2-chloro-5-cyano-3-((7-cyano-4-(cyclopropylamino)imidazo[2,1-f][1,2,4]triazin-2-yl)amino)phenyl)-3-hydroxypiperidin-4-yl)carbamate] | 0.51 nM
19 | COC1CCN(C2CN(c3cc(C(F)F)cc(Nc4nc(NC5CC5)c5ncc(C#N)n5n4)c3Cl)C2)CC1 [Example 260, 2-((2-chloro-5-(difluoromethyl)-3-(3-(4-methoxy-1-piperidinyl)-1-azetidinyl)phenyl)amino)-4-(cyclopropylamino)imidazo[2,1-f][1,2,4]triazine-7-carbonitrile] | 2.12 nM
20 | N#Cc1cc(Nc2nc(NC3CC3)c3ncc(C#N)n3n2)c(OC[C@@H]2COCCN2)cc1F [Example 424, (S)-2-((5-cyano-4-fluoro-2-(morpholin-3-ylmethoxy)phenyl)amino)-4-(cyclopropylamino)imidazo[2,1-f][1,2,4]triazine-7-carbonitrile] | 5.12 nM
21 | CN1CCN(c2cc(C#N)cc(Nc3nc(NC4CC4)c4ncc(C#N)n4n3)c2Cl)C(=O)C1 [Example 618, 2-((2-chloro-5-cyano-3-(4-methyl-2-oxopiperazin-1-yl)phenyl)amino)-4-(cyclopropylamino)imidazo[2,1-f][1,2,4]triazine-7-carbonitrile] | 2.07 nM
22 | COC(=O)NCC1CN(c2cc(C#N)cc(Nc3nc(NC4CC4)c4ncc(C#N)n4n3)c2Cl)CCN1C (stereo not drawn) [Example 713, methyl N-{[4-(2-chloro-5-cyano-3-{[7-cyano-4-(cyclopropylamino)imidazo[2,1-f][1,2,4]triazin-2-yl]amino}phenyl)-1-methylpiperazin-2-yl]methyl}carbamate] | 5.48 nM
23 | C[C@@H]1CN(c2cc(C#N)cc(Nc3nc(NC4CC4)c4ncc(C#N)n4n3)c2Cl)C[C@H](C)N1C [Example 24, (+/−) 2-((2-chloro-5-cyano-3-((3R,5S)-3,4,5-trimethyl-1-piperazinyl)phenyl)amino)-4-(cyclopropylamino)imidazo [2,1-f][1,2,4]triazine-7-carbonitrile] | 1 nM
24 | N#Cc1cc(Nc2nc(NC3CC3)c3ncc(C#N)n3n2)c(Cl)c(N2CCN(C3CN(C(=O)C4CCC(O)CC4)C3)CC2)c1 (stereo not drawn) [Example 509, 2-[(2-chloro-5-cyano-3-{4-[1-(4-hydroxycyclohexane-carbonyl)azetidin-3-yl]piperazin-1-yl}phenyl)amino]-4-(cyclopropylamino)imidazo[2,1-f][1,2,4]triazine-7-carbonitrile] | 5.11 nM
25 | COC(=O)N[C@H]1CCN(c2cc(C#N)cc(Nc3nc(NC4CC4)c4ncc(C#N)n4n3)c2Cl)C[C@H]1N(C)CC#N [Example 766, methyl N-[(3R,4S)-1-(2-chloro-5-cyano-3-{[7-cyano-4-(cyclopropylamino)imidazo [2,1-f][1,2,4]triazin-2-yl]amino}phenyl)-3-[(cyanomethyl)(methyl)amino]piperidin-4-yl]carbamate] | 6 nM
26 | COC(=O)N[C@H]1CCN(c2cc(C#N)cc(Nc3nc(NC4CC4)c4ncc(C#N)n4n3)c2Cl)CC1N(C)C1COC1 (stereo partly drawn) [Example 763, methyl N-[(4S)-1-(2-chloro-5-cyano-3-{[7-cyano-4-(cyclopropylamino)imidazo [2,1-f][1,2,4]triazin-2-yl]amino}phenyl)-3-[methyl(oxetan-3-yl)amino]piperidin-4-yl]carbamate] | 1.35 nM
27 | CCNc1nc(Nc2cc(C#N)cc(N3CC[C@@H](NC(=O)OC)[C@H](OC(=O)[C@@H](N)CCN)C3)c2Cl)nn2c(C#N)cnc12 [Example 812, (S)-(3R,4R)-1-(2-chloro-5-cyano-3-((7-cyano-4-(ethylamino)imidazo[2,1-f][1,2,4]triazin-2-yl)amino)phenyl)-4-((methoxycarbonyl)amino)piperidin-3-yl 2,4-diaminobutanoate dihydrochloride] | 4.61 nM
